# Measurements: US20260285855A1, “HETEROARYL DERIVATIVES AS DDRS INHIBITORS” (CHIESI FARMACEUTICI S.P.A., priority 2023, published 2026)
# pKi: −log10 of the molar value.
# Assays:
# [1] = target: T1, DDR1 (Homo sapiens, UniProt Q08345); test: LanthaScreen Europium Kinase Binding assay, DDR1; conditions: 5 nM DDR1, 20 nM Kinase Tracer 178, 1 h at rt; Ki from IC50 by Cheng-Prusoff; read-out: Ki DDR1
# T1 construct: purchased Carna Biosciences
# Method: (§1) DDR1 and DDR2 binding assays were performed using Life Technologies LanthaScreen™ Europium Kinase Binding assay. […] IC50 values were determined in GraphPad Prism 7.0 software, using 4 parameter model: log (inhibitor) vs. response. IC50 values were converted in Ki using the Cheng-Prusoff equation (Ki-IC50/(1+ [Tracer]/Kd).
# [2] = target: T2, DDR2 (Homo sapiens, UniProt Q16832); test: LanthaScreen Europium Kinase Binding assay, DDR2; conditions: 5 nM DDR2, 10 nM Kinase Tracer 178, 1 h at rt; Ki from IC50 by Cheng-Prusoff; read-out: Ki DDR2
# T2 construct: purchased Life Technologies
# T2 sequence (Q16832 22-855): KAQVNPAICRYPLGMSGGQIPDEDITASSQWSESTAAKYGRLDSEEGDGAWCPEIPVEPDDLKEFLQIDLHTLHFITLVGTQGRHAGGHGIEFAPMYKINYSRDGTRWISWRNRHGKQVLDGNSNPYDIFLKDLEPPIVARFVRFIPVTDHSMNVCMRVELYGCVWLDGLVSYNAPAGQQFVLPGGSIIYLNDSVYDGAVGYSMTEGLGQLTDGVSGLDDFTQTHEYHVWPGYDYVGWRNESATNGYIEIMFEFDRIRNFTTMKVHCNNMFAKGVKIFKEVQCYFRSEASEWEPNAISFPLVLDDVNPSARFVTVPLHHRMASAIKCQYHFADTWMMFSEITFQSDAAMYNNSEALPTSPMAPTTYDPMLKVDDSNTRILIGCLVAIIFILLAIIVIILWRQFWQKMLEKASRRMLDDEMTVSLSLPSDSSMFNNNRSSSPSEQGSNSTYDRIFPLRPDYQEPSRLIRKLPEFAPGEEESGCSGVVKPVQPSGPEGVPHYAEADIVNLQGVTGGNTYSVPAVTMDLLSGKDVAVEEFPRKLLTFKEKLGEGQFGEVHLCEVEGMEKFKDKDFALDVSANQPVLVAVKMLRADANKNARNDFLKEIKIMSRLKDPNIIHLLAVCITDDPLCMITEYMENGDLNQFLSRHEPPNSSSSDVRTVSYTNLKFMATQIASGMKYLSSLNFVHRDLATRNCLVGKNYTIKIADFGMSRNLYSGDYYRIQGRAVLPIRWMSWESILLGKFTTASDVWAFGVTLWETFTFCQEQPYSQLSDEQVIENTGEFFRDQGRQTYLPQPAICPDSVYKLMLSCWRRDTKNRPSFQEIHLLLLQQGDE
# Method: as §1
# T1 sequence (Q08345 19-913): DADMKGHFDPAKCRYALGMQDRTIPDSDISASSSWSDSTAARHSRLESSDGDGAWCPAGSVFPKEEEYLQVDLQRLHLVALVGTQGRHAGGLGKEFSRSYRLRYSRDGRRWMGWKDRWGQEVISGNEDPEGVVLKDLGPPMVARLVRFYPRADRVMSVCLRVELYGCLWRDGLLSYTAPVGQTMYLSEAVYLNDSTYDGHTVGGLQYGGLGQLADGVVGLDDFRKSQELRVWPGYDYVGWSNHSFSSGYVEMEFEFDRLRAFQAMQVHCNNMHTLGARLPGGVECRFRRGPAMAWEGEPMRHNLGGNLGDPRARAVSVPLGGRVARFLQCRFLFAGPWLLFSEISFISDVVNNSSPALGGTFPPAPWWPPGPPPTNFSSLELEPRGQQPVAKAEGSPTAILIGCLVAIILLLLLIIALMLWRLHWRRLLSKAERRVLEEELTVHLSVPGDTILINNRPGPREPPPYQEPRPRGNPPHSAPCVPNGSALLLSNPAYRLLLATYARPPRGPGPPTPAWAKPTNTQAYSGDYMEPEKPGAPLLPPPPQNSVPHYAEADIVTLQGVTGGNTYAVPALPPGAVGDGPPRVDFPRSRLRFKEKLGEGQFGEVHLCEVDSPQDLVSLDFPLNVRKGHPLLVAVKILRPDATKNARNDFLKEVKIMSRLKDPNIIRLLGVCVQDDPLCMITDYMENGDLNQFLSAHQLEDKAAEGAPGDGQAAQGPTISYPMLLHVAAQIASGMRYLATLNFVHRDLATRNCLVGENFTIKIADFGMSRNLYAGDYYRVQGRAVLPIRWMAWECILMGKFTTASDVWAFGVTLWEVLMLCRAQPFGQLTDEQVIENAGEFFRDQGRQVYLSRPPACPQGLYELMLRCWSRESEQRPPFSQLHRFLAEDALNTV
pKi [1],pKi [2],Compound
7.60 to 8.30,7.00 to 7.60,"CN(C(=O)Nc1cc(C(F)(F)F)cnn1)C1CC2(C1)CN(C(=O)c1cnn3ccn(C)c13)C2 [Example 208, 1-methyl-1-(2-(1-methyl-1H-imidazo[1,2-b]pyrazole-7-carbonyl)-2-azaspiro[3.3]heptan-6-yl)-3-(5-(trifluoromethyl)pyridazin-3-yl)urea]"
> 8.30,7.60 to 8.30,"CN(C(=O)Nc1cc(C(F)(F)F)ccn1)C1CC2(C1)CN(C(=O)c1cnn3ccn(CCO)c13)C2 [Example 209, 1-(2-(1-(2-hydroxyethyl)-1H-imidazo[1,2-b]pyrazole-7-carbonyl)-2-azaspiro[3.3]heptan-6-yl)-1-methyl-3-(4-(trifluoromethyl)pyridin-2-yl)urea]"
> 8.30,> 8.30,"CN(C(=O)Nc1cccc(S(F)(F)(F)(F)F)c1)C1CC2(C1)CN(C(=O)c1cnn3ccn(CCO)c13)C2 [Example 210, 1-(2-(1-(2-hydroxyethyl)-1H-imidazo[1,2-b]pyrazole-7-carbonyl)-2-azaspiro[3.3]heptan-6-yl)-1-methyl-3-(3-(pentafluoro-16-sulfaneyl)phenyl)urea]"
7.60 to 8.30,7.00 to 7.60,"COc1c(CO)cc(OC(F)(F)F)cc1NC(=O)NC1CC2(C1)CN(C(=O)c1cnn3ccncc13)C2 [Example 212, 1-(3-(hydroxymethyl)-2-methoxy-5-(trifluoromethoxy)phenyl)-3-(2-(pyrazolo[1,5-a]pyrazine-3-carbonyl)-2-azaspiro[3.3]heptan-6-yl)urea]"
7.60 to 8.30,7.00 to 7.60,"COCCn1ccn2ncc(C(=O)N3CC4(CC(N(C)C(=O)Nc5cncc(C(F)(F)F)c5)C4)C3)c12 [Example 213, 1-(2-(1-(2-methoxyethyl)-1H-imidazo[1,2-b]pyrazole-7-carbonyl)-2-azaspiro[3.3]heptan-6-yl)-1-methyl-3-(5-(trifluoromethyl)pyridin-3-yl)urea]"
> 8.30,7.60 to 8.30,"CN(C(=O)Nc1cncc(C(F)(F)F)c1)C1CC2(C1)CN(C(=O)c1cnn3ccc(N4CCCC4)cc13)C2 [Example 214, 1-methyl-1-(2-(5-(pyrrolidin-1-yl)pyrazolo[1,5-a]pyridine-3-carbonyl)-2-azaspiro[3.3]heptan-6-yl)-3-(5-(trifluoromethyl)pyridin-3-yl)urea]"
7.60 to 8.30,7.00 to 7.60,"CN(C(=O)Nc1cc(C(C)(C)C)no1)C1CC2(C1)CN(C(=O)c1cnn3ccn(C)c13)C2 [Example 215, 3-(3-(tert-butyl)isoxazol-5-yl)-1-methyl-1-(2-(1-methyl-1H-imidazo[1,2-b]pyrazole-7-carbonyl)-2-azaspiro[3.3]heptan-6-yl)urea]"
> 8.30,7.00 to 7.60,"CN(C(=O)Nc1cncc(C(F)(F)F)c1)C1CC2(C1)CN(C(=O)c1cnn3ccccc13)C2 [Example 216, 1-methyl-1-(2-(pyrazolo[1,5-a]pyridine-3-carbonyl)-2-azaspiro[3.3]heptan-6-yl)-3-(5-(trifluoromethyl)pyridin-3-yl)urea]"
> 8.30,7.60 to 8.30,"CN(C(=O)Nc1cc(C(F)(F)F)ccn1)C1CC2(C1)CN(C(=O)c1cnn3ccsc13)C2 [Example 217, 1-methyl-1-(2-(pyrazolo[5,1-b]thiazole-7-carbonyl)-2-azaspiro[3.3]heptan-6-yl)-3-(4-(trifluoromethyl)pyridin-2-yl)urea]"
> 8.30,7.60 to 8.30,"COc1c(CO)cc(OC(F)(F)F)cc1NC(=O)N(C)C1CC2(C1)CN(c1cnc3[nH]ncc3c1)C2 [Example 218, 1-(2-(1H-pyrazolo[3,4-b]pyridin-5-yl)-2-azaspiro[3.3]heptan-6-yl)-3-(3-(hydroxymethyl)-2-methoxy-5-(trifluoromethoxy)phenyl)-1-methylurea]"
> 8.30,7.60 to 8.30,"CN(C(=O)Nc1cc(OC(F)(F)F)ccn1)C1CC2(C1)CN(c1cnc3[nH]ncc3c1)C2 [Example 219, 1-(2-(1H-pyrazolo[3,4-b]pyridin-5-yl)-2-azaspiro[3.3]heptan-6-yl)-1-methyl-3-(4-(trifluoromethoxy)pyridin-2-yl)urea]"
7.60 to 8.30,7.00 to 7.60,"CN(C(=O)Nc1cncc(C(F)(F)F)c1)C1CC2(C1)CN(c1cnc3[nH]ccc3c1)C2 [Example 220, 1-(2-(1H-pyrrolo[2,3-b]pyridin-5-yl)-2-azaspiro[3.3]heptan-6-yl)-1-methyl-3-(5-(trifluoromethyl)pyridin-3-yl)urea]"
> 8.30,7.60 to 8.30,"CN(C(=O)Nc1cncc(OC(F)(F)F)c1)C1CC2(C1)CN(c1cnc3[nH]ncc3c1)C2 [Example 221, 1-(2-(1H-pyrazolo[3,4-b]pyridin-5-yl)-2-azaspiro[3.3]heptan-6-yl)-1-methyl-3-(5-(trifluoromethoxy)pyridin-3-yl)urea]"
7.60 to 8.30,7.00 to 7.60,"CN(C(=O)Nc1cc(C(C)(C)C)on1)C1CC2(C1)CN(C(=O)c1cnn3ccn(C)c13)C2 [Example 222, 3-(5-(tert-butyl)isoxazol-3-yl)-1-methyl-1-(2-(1-methyl-1H-imidazo[1,2-b]pyrazole-7-carbonyl)-2-azaspiro[3.3]heptan-6-yl)urea]"
> 8.30,7.60 to 8.30,"Cc1cc(NC(=O)N(C)C2CC3(C2)CN(C(=O)c2cnn4ccn(C)c24)C3)cc(C(F)(F)F)c1 [Example 223, 1-methyl-1-(2-(1-methyl-1H-imidazo[1,2-b]pyrazole-7-carbonyl)-2-azaspiro[3.3]heptan-6-yl)-3-(3-methyl-5-(trifluoromethyl)phenyl)urea]"
> 8.30,7.60 to 8.30,"CN(C(=O)Nc1cc(Cl)cc(C(F)(F)F)c1)C1CC2(C1)CN(C(=O)c1cnn3ccn(C)c13)C2 [Example 224, 3-(3-chloro-5-(trifluoromethyl)phenyl)-1-methyl-1-(2-(1-methyl-1H-imidazo[1,2-b]pyrazole-7-carbonyl)-2-azaspiro[3.3]heptan-6-yl)urea]"
> 8.30,7.00 to 7.60,"COCCc1cn2ncc(C(=O)N3CC4(CC(N(C)C(=O)Nc5cncc(C(F)(F)F)c5)C4)C3)c2n1C [Example 225, 1-(2-(2-(2-methoxyethyl)-1-methyl-1H-imidazo[1,2-b]pyrazole-7-carbonyl)-2-azaspiro[3.3]heptan-6-yl)-1-methyl-3-(5-(trifluoromethyl)pyridin-3-yl)urea]"
> 8.30,7.60 to 8.30,"CN(C(=O)Nc1cc(Br)ccn1)C1CC2(C1)CN(C(=O)c1cnn3ccsc13)C2 [Example 226, 3-(4-bromopyridin-2-yl)-1-methyl-1-(2-(pyrazolo[5,1-b]thiazole-7-carbonyl)-2-azaspiro[3.3]heptan-6-yl)urea]"
> 8.30,7.60 to 8.30,"COCCn1cc(-c2ccc3c(C(=O)N4CC5(CC(N(C)C(=O)Nc6cncc(C(F)(F)F)c6)C5)C4)cnn3c2)cn1 [Example 227, 1-(2-(6-(1-(2-methoxyethyl)-1H-pyrazol-4-yl)pyrazolo[1,5-a]pyridine-3-carbonyl)-2-azaspiro[3.3]heptan-6-yl)-1-methyl-3-(5-(trifluoromethyl)pyridin-3-yl)urea]"
> 8.30,7.00 to 7.60,"CN(C(=O)Nc1cc(C(F)(F)F)cnn1)C1CC2(C1)CN(C(=O)c1cnn3ccsc13)C2 [Example 228, 1-methyl-1-(2-(pyrazolo[5,1-b]thiazole-7-carbonyl)-2-azaspiro[3.3]heptan-6-yl)-3-(5-(trifluoromethyl)pyridazin-3-yl)urea]"
> 8.30,7.60 to 8.30,"Cc1ncc(-c2ccc3c(C(=O)N4CC5(CC(N(C)C(=O)Nc6cncc(C(F)(F)F)c6)C5)C4)cnn3c2)o1 [Example 229, 1-methyl-1-(2-(6-(2-methyloxazol-5-yl)pyrazolo[1,5-a]pyridine-3-carbonyl)-2-azaspiro[3.3]heptan-6-yl)-3-(5-(trifluoromethyl)pyridin-3-yl)urea]"
> 8.30,7.60 to 8.30,"CN(C(=O)Nc1cncc(C(F)(F)F)c1)C1CC2(C1)CN(C(=O)c1cnn3cc(-c4cccnc4)ccc13)C2 [Example 230, 1-methyl-1-(2-(6-(pyridin-3-yl)pyrazolo[1,5-a]pyridine-3-carbonyl)-2-azaspiro[3.3]heptan-6-yl)-3-(5-(trifluoromethyl)pyridin-3-yl)urea]"
> 8.30,7.60 to 8.30,"CN(C(=O)Nc1cncc(C(F)(F)F)c1)C1CC2(C1)CN(C(=O)c1cnn3cc(-c4cnn(C)c4)ccc13)C2 [Example 231, 1-methyl-1-(2-(6-(1-methyl-1H-pyrazol-4-yl)pyrazolo[1,5-a]pyridine-3-carbonyl)-2-azaspiro[3.3]heptan-6-yl)-3-(5-(trifluoromethyl)pyridin-3-yl)urea]"
